According to US20080161338A1, “Novel Pyrrolodihydroisoquinolines as Pde 10 Inhibitors” (ALTANA PHARMA AG, priority 2005, published 2008):

Q: For `COc1cc2c(cc1OC)-c1c(-c3nc(C)no3)c(-c3cc(C)c(O)c(C)c3)c(C)n1C(C)C2` (racemic) [Example 1, (5RS)-4-[8,9-Dimethoxy-3,5-dimethyl-1-(3-methyl-[1,2,4]oxadiazol-5-yl)-5,6-dihydro-pyrrolo[2,1-a]isoquinolin-2-yl]-2,6-dimethyl-phenol], which melting point is on record?
A: Its melting point is 182 to 184 °C.

Q: For `COc1cc2c(cc1OC)-c1c(-c3nc(-c4ccccc4)no3)c(-c3cc(C)c(O)c(C)c3)c(C)n1C(C)C2` (racemic) [Example 3, (5RS)-4-[8,9-Dimethoxy-3,5-dimethyl-1-(3-phenyl-[1,2,4]oxadiazol-5-yl)-5,6-dihydro-pyrrolo[2,1-a]isoquinolin-2-yl]-2,6-dimethyl-phenol], which melting point is on record?
A: The melting point was 203 to 206 °C.

Q: For `COc1cc2c(cc1OC)-c1c(-c3nc(C4CC4)no3)c(-c3cc(C)c(O)c(C)c3)c(C)n1C(C)C2` (stereo not drawn) [Example 2, (5RS)-4-[1-(3-Cyclopropyl-[1,2,4]oxadiazol-5-yl)-8,9-dmethoxy-3,5-dimethyl-5,6-dihydro-pyrrolo[2,1-a]isoquinolin-2-yl]-2,6-dimethyl-phenol], which melting point is on record?
A: The melting point was 174 to 175 °C.

Q: For `COc1cc2c(cc1OC)-c1c(-c3nc(-c4ccccc4)no3)c(-c3cc(C)c(O)c(C)c3)c(C)n1CC2` [Example 4, 4-[8,9-Dimethoxy-3-methyl-1-(3-phenyl-[1,2,4]oxadiazol-5-yl)-5,6-dihydro-pyrrolo[2,1-a]isoquinolin-2-yl]-2,6-dimethyl-phenol], which melting point is on record?
A: The melting point was 191 to 193 °C.

Q: With `COc1cc2c(cc1OC)-c1c(-c3nc(C)no3)c(-c3cc(C)c(O)c(C)c3)c(C)n1CC2` [Example 5, 4-[8,9-Dimethoxy-3-methyl-1-(3-methyl-[1,2,4]oxadiazol-5-yl)-5,6-dihydro-pyrrolo[2,1-a]isoquinolin-2-yl]-2,6-dimethyl-phenol] as the compound, how does the melting point read?
A: Its melting point is 218 to 221 °C.

Q: For `COc1cc2c(cc1OC)-c1c(-c3ncc(C)o3)c(-c3cc(C)c(O)c(C)c3)c(C)n1CC2` [Example 6, 4-[8,9-Dimethoxy-3-methyl-1-(5-methyl-oxazol-2-yl)-5,6-dihydro-pyrrolo[2,1-a]isoquinolin-2-yl]-2,6-dimethyl-phenol], which melting point is on record?
A: Its melting point is 222 to 224 °C.
